# Data reported in publication PMC3130094 (Pharmacological research : the official journal of the …, 2011).
# Values joined by “and” are separate entries in the source; they are usually repeats but may differ in a detail not shown here. Equal entries are not always repeated. “Also recorded” adds a separate entry of the source. Where two headings read alike, the source gives them in different places. Non-standard residues stand in square brackets, D forms with d. Residues, ends and D or L forms follow the SMILES beside them. No end group written: not given here.
# Columns and labels:
# ND7/104 cells [1] = experiment: Ratiometric Fura-2 calcium imaging, ND7/104 cells; type: cell-based, rat/mouse hybrid; conditions: for Effect on ET-1 (30 nM) calcium transient: MDL-12,330A 50 µM, five minutes before ET-1, ND7/104 cells
# HEK 293T cells [2] = experiment: Ratiometric Fura-2 calcium imaging, HEK 293T cells; type: cell-based, human; conditions: for Effect on ET-1 (30 nM) calcium transient: MDL-12,330A 50 µM, five minutes before ET-1, HEK 293T cells
# HEK 293 cells = experiment: Ratiometric Fura-2 calcium imaging, HEK 293 cells; type: cell-based, human
# [3] = system: ET receptors (ETA/ETB) on intact ND7/104 cells; experiment: Competition binding against 30 pM [125I]-ET-1, intact ND7/104 cells; design: species or system rat/mouse hybrid; conditions: 100 nM BQ-123, ND7/104 cells
# [4] = system: ET receptors (ETA/ETB) on intact HEK 293T cells
# [5] = target: T1, ET receptors (ETA/ETB) on intact HEK 293T cells (Homo sapiens, UniProt P25101); conditions: read-out: High affinity KI BQ-123; HEK 293T cells, high affinity site (assumed ETA)
# T1 sequence (P25101 21-427): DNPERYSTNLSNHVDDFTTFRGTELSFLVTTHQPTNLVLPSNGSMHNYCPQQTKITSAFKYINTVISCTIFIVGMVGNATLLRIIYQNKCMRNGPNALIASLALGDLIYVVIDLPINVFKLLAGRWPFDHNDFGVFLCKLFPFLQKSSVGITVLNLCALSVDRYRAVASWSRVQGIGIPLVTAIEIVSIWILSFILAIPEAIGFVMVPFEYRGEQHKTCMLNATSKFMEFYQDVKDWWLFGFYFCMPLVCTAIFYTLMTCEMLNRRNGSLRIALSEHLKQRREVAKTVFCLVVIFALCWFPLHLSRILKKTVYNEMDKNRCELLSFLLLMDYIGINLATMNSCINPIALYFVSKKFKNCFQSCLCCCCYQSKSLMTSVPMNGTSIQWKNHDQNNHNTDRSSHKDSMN
# [6] = system: ET receptors (ETA/ETB) on intact HEK 293 cells; conditions: for Ki: HEK 293 cells
# HEK 293T cells [7] = experiment: Intracellular cAMP enzyme immunoassay, HEK 293T cells; type: cell-based, human; conditions: ET-1 0.3 nM to 300 nM, 10 min 37 °C
# ND7/104 cells [8] = experiment: Intracellular cAMP enzyme immunoassay, ND7/104 cells; type: cell-based, rat/mouse hybrid; conditions: ET-1 0.3 nM to 300 nM, 10 min 37 °C
# [9] = system: ET receptors on intact ND7/104 cells; experiment: [125I]-ET-1 saturation binding to intact ND7/104 cells; design: species or system rat/mouse hybrid; conditions: read-out: KD (I-ET-1), 4 °C
# [10] = target: cloned tagged-ETA receptors; conditions: HEK 293 membranes ref [33]; cited from earlier work
# [11] = target: cloned tagged-ETB receptors; conditions: HEK 293 membranes ref [33]; cited from earlier work
# [12] = target: ET receptors in pituitary tissue sections; conditions: pituitary tissue sections ref [32]; cited from earlier work
compound,measurement,setting,value
Nc1ncnc2c1ncn2[C@@H]1O[C@H](COP(=O)(O)OP(=O)(O)OP(=O)(O)O)[C@@H](O)[C@H]1O [ATP],Calcium response to ATP,"ND7/104 cells [1]; ATP 40 µM, ND7/104 cells",induced a strong and comparable calcium response
same,Calcium response to ATP,"HEK 293T cells [2]; ATP 40 µM, HEK 293T cells",induced a strong and comparable calcium response
same,Calcium response to ATP,HEK 293 cells; ATP 40 µM,induced a strong and comparable calcium response
CC(C)C[C@@H]1NC(=O)[C@@H](C(C)C)NC(=O)[C@@H]2CCCN2C(=O)[C@@H](CC(=O)O)NC(=O)[C@@H](Cc2c[nH]c3ccccc23)NC1=O [BQ-123] (cyclo(L[dW][dD]P[dV]); ring closure inferred),Effect on ET-1 (30 nM) stimulated calcium increase,"ND7/104 cells [1]; BQ-123 50 nM, ND7/104 cells",blocked; also recorded: completely prevented
same,"ETA binding defined by BQ-123, share of specific [125I]-ET-1 binding",[3],75.2 ± 22.2% and 75 ± 22%
same,Effect on ET-1 (30 nM) stimulated calcium increase,"HEK 293T cells [2]; BQ-123 50 nM, HEK 293T cells",blocked; also recorded: completely prevented
same,"ETA binding defined by BQ-123, share of specific [125I]-ET-1 binding","[4]; 100 nM BQ-123, HEK 293T cells",75 ± 9%
same,Low affinity Ki BQ-123,"[4]; HEK 293T cells, low affinity site",too high to allow its estimation
same,Ki,"[4]; read-out: KI (BQ-123), HEK 293T cells, 30 pM [125I]-ET-1",0.21 ± 0.01 nM
same,Ki,[5],5.47 ± 1.52 nM
same,"ETA binding defined by BQ-123, share of specific [125I]-ET-1 binding","[6]; 100 nM BQ-123, HEK 293 cells",85.3 ± 19% and 85 ± 19%
same,Ki,"[6]; read-out: KI (BQ-123), 30 pM [125I]-ET-1",0.39 ± 0.14 nM
same,Ki,"[6]; read-out: Low affinity KI BQ-123, low affinity site",195 ± 136 nM
CCCC[C@@H](NC(=O)[C@@H](Cc1cn(C(=O)OC)c2ccccc12)NC(=O)[C@H](CC(C)(C)C)NC(=O)N1[C@H](C)CCC[C@@H]1C)C(=O)O [BQ-788],Effect on ET-1 (30 nM) stimulated calcium increase,"ND7/104 cells [1]; BQ-788 100 nM (Figure 6B: 100 and 200 nM), ND7/104 cells",without effect; also recorded: not affected
same,Effect on ET-1 (30 nM) stimulated calcium increase,"HEK 293T cells [2]; BQ-788 100 nM (Figure 6B: 100 and 200 nM), HEK 293T cells",without effect; also recorded: not affected
Cc1cc(C)cc(C(=O)N(C)[C@H](Cc2ccc(-c3ccccc3)cc2)C(=O)N[C@@H](Cc2c[nH]c3ccccc23)C(=O)O)c1 [IRL-2500],Effect on ET-1 (30 nM) stimulated calcium increase,"ND7/104 cells [1]; IRL-2500 50 nM, ND7/104 cells",without effect; also recorded: not affected
same,Effect on ET-1 (30 nM) stimulated calcium increase,"HEK 293T cells [2]; IRL-2500 50 nM, HEK 293T cells",without effect; also recorded: not affected
"Cl.c1ccc(C2CCCC2NC2=NCCCCCCCCCCC2)cc1 (stereo not drawn) [MDL-12,330A]",Effect on calcium response to ATP,"ND7/104 cells [1]; MDL 12,330A 50 µM preincubation, ND7/104 cells",markedly diminished response to ATP
same,Effect on ET-1 (30 nM) calcium transient,ND7/104 cells [1],same outcome
same,Effect on ET-1 (30 nM) calcium transient,"ND7/104 cells [1]; listed as MDL 12,330A",did not affect negatively
same,Basal [Ca2+]in on application of antagonist/inhibitor alone,"ND7/104 cells [1]; ND7/104 cells, MDL 12,330A 50 µM, data not shown",did not produce a significant effect; also recorded: did not elicit a significant rise of [Ca^2+]in
same,Basal [Ca2+]in on application of antagonist/inhibitor alone,"HEK 293T cells [2]; HEK 293T cells, MDL 12,330A 50 µM, data not shown",did not produce a significant effect; also recorded: did not elicit a significant rise of [Ca^2+]in
same,Effect on ET-1 (30 nM) calcium transient,HEK 293T cells [2],same outcome
same,Effect on ET-1 (30 nM) calcium transient,"HEK 293T cells [2]; listed as MDL 12,330A",did not affect negatively
COc1ccc2c(c1)CC[C@@H]1[C@@H]2CC[C@]2(C)[C@@H](NCCCCCCN3C(=O)C=CC3=O)CC[C@@H]12 [U73122],Effect on ET-1 (30 nM) induced calcium transient,"ND7/104 cells [1]; U73122 10 µM, 30 min pretreatment, normalized to ionomycin, ND7/104 cells",complete inhibition
same,Effect on calcium response to ATP,"ND7/104 cells [1]; U73122 10 µM, ND7/104 cells",abrogated
same,Effect on response elicited by bradykinin,"ND7/104 cells [1]; U73122, ND7/104 cells, data not shown",does not inhibit
same,Effect on ET-1 (30 nM) induced calcium transient,"HEK 293T cells [2]; U73122 10 µM, 30 min pretreatment, normalized to ionomycin, HEK 293T cells",complete inhibition
same,Effect on calcium response to ATP,"HEK 293T cells [2]; U73122 10 µM, HEK 293T cells",abrogated
"Endothelin-1 (CSCSSLMDKECVYFCHLDIIW; ends and bridges not checked; cysteine pairing not given here; UniProt P05305 53-73, looked up) [ET-1]",Share of cells showing [Ca2+]in mobilization,"ND7/104 cells [1]; ET-1 30 nM and 100 nM, ND7/104 cells",~ 35%
same,[Ca2+]in response to ET-1 (normalized to ATP 40 µM),"ND7/104 cells [1]; ET-1 30 or 100 nM, ND7/104 cells",caused an increase in [Ca]in
same,[Ca2+]in response to ET-1 in the absence of extracellular calcium,"ND7/104 cells [1]; calcium-free Ringer, ND7/104 cells",not diminished; also recorded: did not affect the response
same,Intracellular cAMP accumulation,HEK 293T cells [7],did not record a rise of intracellular cAMP; also recorded: None of the ET-1 concentrations tested produced a significant effect
same,Share of cells showing [Ca2+]in mobilization,"HEK 293T cells [2]; ET-1 30 nM and 100 nM, HEK 293T cells",~ 35%
same,[Ca2+]in response to ET-1 (normalized to ATP 40 µM),"HEK 293T cells [2]; ET-1 30 or 100 nM, HEK 293T cells",caused an increase in [Ca]in
same,[Ca2+]in response to ET-1 in the absence of extracellular calcium,"HEK 293T cells [2]; calcium-free Ringer, HEK 293T cells",not diminished; also recorded: did not affect the response
same,[Ca2+]in response to ET-1 (normalized to ATP 40 µM),HEK 293 cells; ET-1 30 or 100 nM,neither of these concentrations of ET-1 produced a detectable increase of [Ca^2+]in; also recorded: does not promote intracellular calcium mobilization; also recorded: this effect was not observed
same,Intracellular cAMP accumulation,ND7/104 cells [8],did not record a rise of intracellular cAMP; also recorded: None of the ET-1 concentrations tested produced a significant effect
[^125I]-ET-1: radio-iodinated endothelin-1 used as radioligand,Kd,[9],0.07 ± 0.01 nM
same,Kd,[10],~0.03 nM
same,Kd,[11],~0.01 nM
same,Kd,[12],0.071 nM
